Consider two molecules from US20030220363A1, “Use of propionyl L-carnitine for the preparation of a medicament capable of inducing apoptosis” (SIGMA-TAU INDUSTRIE FARMACEUTICHE RIUNITE S.p.A., priority 1998, published 2003).

Marks after values point to notes of the source that are not given here.

The test system of assay [1] is smooth muscle cells of rat aorta. The assay is described as follows: In vivo proliferation of smooth muscle cells of rat aorta after mechanical de-endothelialization (anti-BrDU positive nuclei). Details: species or system Wistar rat. To be noted: for +Nuclei/total nuclei % (anti-bromodeoxyuridine positive): 15 days after de-endothelialization, PLC 120 mg/Kg or Enalapril 1 mg/Kg p.c. die, ± s.e.m., preliminary results. The method, then: (§1) Wistar male rats, weighing between […], were used for the experiments. The rats were anaesthetised with Nembutal i.p. (35 mg/kg body weight) and the thoracic portion of aorta was submitted to endothelium mechanical removal with Fogarty 2F balloon probe (Baxter USA), according to the Baugartner and Studer method(1966) with minor modification (Orlandi 1994).
(§2) Two groups were subjected to pharmacological treatment with propionyl L-carnitine (PLC, 120 mg/Kg p.c. die), one group was treated with an ACE-inhibitor (Enalapril, 1 mg/Kg p.c. die); the two remaining groups were the control. Moreover, some non-balloonized animals were used as blanks.
The animals were sacrificed 3 and 15 days after de-endothelialization. Two hours before sacrifice, all the rats received i.v. a Bromodeoxyuridine solution (BrDU) (45 mg/kg body weight) in order to verify cell proliferation. One hour before sacrifice, some randomly selected animals received 1 ml Blue Evans (1% in 0.9% NaCl solution) in order to evaluate the degree of aorta disruption.
At sacrifice, the animals were anaesthetised with i.p. Nembutal and perfused, after washing with isotonic saline containing 3% Dextran 70, with buffered formalin for 20 minutes. Aortae were isolated, slightly washed in saline and dissected longitudinally. Carotid, heart and small intestine were also excised. All the organs were post-fixed in the same fixative for 24 hours at room temperature.
In order to put in evidence proliferating cells in damaged arteries, serial sections in paraffin of aortae were deparaffined, rehydrated, immersed in a 3% H2O2 solution for 20 minutes and incubated with trypsine (0.05 M in Tris-HCl, pH 7.6) at 37° C. After that, sections were treated with 2N HCl at 37° C. for 30 minutes, washed with 0.1 M sodium tetraborate for 10 minutes, incubated with normal horse serum (Vector) and subsequently with and-BrDU monoclonal antibody (Ylem) for 1 hour. The preparates were then reacted with biotilinated anti-mouse IgG (Vector) and the Streptoavidine-ABC-POD complex (Ylem).
The reaction was evidenced by using diaminobenzidine (DAB) as final chromogen. The count of positive nuclei for BrDU was made on the total number of nuclei. Such count was blind-made by two researchers separately. The difference between the two counts was always lower than 0.5%.
All data were analysed with the T Student's test. The differences between the groups were considered to be significant for P<0.05.

The subject of a further assay is rat aorta intima. The assay is described as follows: Morphometric analysis of intima thickening after mechanical de-endothelialization. It counts as in vivo, Wistar rat. The note with it: 15 days after de-endothelialization, PLC 120 mg/Kg or Enalapril 1 mg/Kg p.c. die; for Intima volume/wall (percentage ratio between intima volume and aorta wall volume): ± s.e.m., preliminary results. The method, then:
as §1, §2
The entity of intima thickening after 15 days was evaluated on Verhoeff-Van Gieson stained sections, using a grid overlapped on the image, consisting of 400 points, 1 cm from each other.
The analysis was made on hystological preparates through a Hamamatsu C3077 camera controlled by a Hamamatsu DVS 3000 image analyser and connected to a Polyvar-Reichert microscope. Morphometric evaluation was made at X116 magnification. The following parameters were evaluated a) relative volume of intima referred to arterial wall; b) relative volume of tunica media referred to arterial wall, by counting the overlapping points on the intima and mean tunica.
3-12 aorta sections were used at different level for each animal. This number was a function of the structure sizes, according to Sach's formula, showing the number of fields necessary to obtain a statistically significant sample.

The subject of assay [2] is smooth muscular cells (SMC) isolated from aortae of spontaneously hypertensive rats (SHR). The assay is described as follows: Cell growth (cell number/ml) of cultured aortic SMC from SHR. The format is cell-based, rat. The method, then:
(§3) In vitro experiments were carried out to evaluate the effect of propionyl L-carnitine (PLC) on smooth muscular cells (SMC) isolated from aortae of spontaneously hypertensive rats (SHR) and, as control, on SMC isolated from normotensive rats (WKY).
(§4) These in vitro studies evidenced that PLC, when administered during culture exponential growth phase, reduces cell growth, evaluated as cell number/ml, as well as DNA synthesis, evaluated through incorporation of trititated thymidine (Tab. 4 and 5).

Assay [3] deals with SMC isolated from normotensive rats (WKY). The assay is described as follows: Cell growth (cell number/ml) of cultured aortic SMC from WKY. It counts as cell-based, rat. Here is the method:
as §3, §4

The subject of assay [4] is smooth muscular cells (SMC) isolated from aortae of spontaneously hypertensive rats (SHR). In words: DNA synthesis by tritiated thymidine incorporation, SHR SMC. The format is cell-based, rat. The note with it: culture day 6. Here is the method: as §3, §4
Assay [5] has as its system SMC isolated from normotensive rats (WKY). The assay is described as follows: DNA synthesis by tritiated thymidine incorporation, WKY SMC. It counts as cell-based, rat. To be noted: culture day 6. The method, then:
as §3, §4
A general note: Dividing cells build labelled thymidine or BrdU into new DNA.

Assay [6] concerns smooth muscular cells (SMC) isolated from aortae of spontaneously hypertensive rats (SHR). In words: Apoptotic cell count after Hoechst 33258 staining, SHR SMC. It counts as cell-based, rat. Here is the method:
as §3
(§5) As a further characterisation of smooth muscular cells in the presence of PLC, the percentage of apoptotic cells was measured both in basal conditions and in oxidative stress conditions. Apoptosis evaluation was carried out by counting the number of apoptotic cells present on a total of 1000 cells, after specific DNA staining with Hoechst 33258.

Assay [7] concerns SMC isolated from normotensive rats (WKY). In words: Apoptotic cell count after Hoechst 33258 staining, WKY SMC. The format is cell-based, rat. The method, then: as §3, §5
In WKY cultures, apoptosis percentage is negligible (tab. 6)

Assay [8] relates to HeLa, uterine cervix tumor. In words: Inhibition of proliferation of neoplastic cells (Trypan Blue count), HeLa. The format is cell-based, human. Details: inhibition of proliferation after removal of PLC: dose or concentration left out as unconfirmed. The method, then:
(§6) Human derived neoplastic cell, obtained from Istituto Zooprofilattico of Brescia, were cultivated. The cells used for the experiment were: U266, multiple myleopma, HeLa, uterine cervix tumor, K562, chronic myeloid leukemia cells. HeLa and K562 were cultivated in RPMI+10% FCS, while those of U266 line were cultivated in RPMI+15% FCS, both media containing Penicilline/Streptomycine (50 U/mL and 50 μg/mL). Cells were plated in 6-wells plates (Falcon). Analysis were performed in cells having 50% confluence.
(§7) Each cell line was treated with PCL according to the folowing schemes:
(§8) a) 1 mM PLC for 24 hours (FIGS. 1-3); 1 mM PLC for 48 hours (FIGS. 1-3);
[…] 4-6).
(§9) At the end of each treatment, cells were counted in Burker chamber in the presence of Trypan Blue 0.5%, diluted 1:2. Count was made for each experimental group on samples coming from three wells.

In another assay the test system is U266, multiple myleopma. In words: Inhibition of proliferation of neoplastic cells (Trypan Blue count), U266. It counts as cell-based, human. The method, then: as §6, §7, §8
[…] 4-6).
as §9

Assay [9] has as its system K562, chronic myeloid leukemia cells. In words: Inhibition of proliferation of neoplastic cells (Trypan Blue count), K562. The format is cell-based, human. Here is the method: as §6, §7, §8
[…] 4-6).
as §9

With `CCC(=O)O[C@H](CC(=O)[O-])C[N+](C)(C)C` [PLC, propionyl L-carnitine], the “Reduction % of BrDU-positive nuclei against control” value in assay [1] (tunica media, 3 days after de-endothelialization, PLC 120 mg/Kg p.c. die) was found to be 59.3%. Besides, the “positive nuclei/total nuclei % (anti-bromodeoxyuridine positive)” value in assay [1] (tunica media, 3 days after de-endothelialization, PLC 120 mg/Kg p.c. die, ± s.e.m) was determined as 2.59 ± 0.56%. Besides, the “Reduction (% to CTR) of intima relative volume” value in the assay with rat aorta intima stood at 31.11%. For the same molecule, the “Intima volume/wall (percentage ratio between intima volume and aorta wall volume)” value in the assay with rat aorta intima is 20.48 ± 2.73 ^(d) %. Moreover, the cell number/ml is listed as 7*10^4 ± 4 /ml in assay [2] (culture day 2); 4*10^4 ± 2 /ml in assay [2] (culture day 3); 7*10^4 ± 4 /ml in assay [2] (culture day 4); 20*10^4 ± 5 /ml in assay [2] (culture day 6); 3*10^4 ± 2 /ml in [3] (culture day 2); 4*10^4 ± 2 /ml in assay [3] (culture day 3). The cell number/ml is given as 6*10^4 ± 2 /ml in assay [3] (culture day 4) and 8*10^4 ± 3 /ml in assay [3] (culture day 6). The tritiated thymidine incorporation in [4] came out at 1.81E−05 μCi/μgDNA; in [5] it was 2.56E−05 μCi/μgDNA. In addition, the apoptotic cell percentage stood at 2% in assay [6] (basal conditions), 10% in assay [6] (oxidative stress), 0% in assay [7] (basal conditions) and 2% in [7] (oxidative stress). For the same molecule, the “inhibition of proliferation with respect to the control” value is recorded as 25% in [8] (1 mM PLC for 24 hours); 17% in [8] (1 mM PLC for 48 hours); 46% in the assay with U266, multiple myleopma (U266, 1 mM PLC for 24 hours); 26% with U266, multiple myleopma (U266, 1 mM PLC for 48 hours); 37% in [9] (K562, 1 mM PLC for 24 hours); 39% in [9] (K562, 1 mM PLC for 48 hours). Moreover, the “inhibition of proliferation after removal of PLC” value turned out to be 20% in [8] (24 hours PLC, then fresh medium without the substance); 26% in the assay on U266, multiple myleopma (U266, 24 hours with 1 mM PLC, then fresh medium without the substance); 21% in assay [9] (K562, 24 hours with 1 mM PLC, then fresh medium without the substance).

As to `CCOC(=O)[C@H](CCc1ccccc1)N[C@@H](C)C(=O)N1CCC[C@H]1C(=O)O` [Enalapril], the “+Nuclei/total nuclei % (anti-bromodeoxyuridine positive)” value in assay [1] (intima tunica) is given as “No significant differences”; in assay [1] (intima tunica, listed as enalapril), 2.43 ± 0.39 (c) %; in assay [1] (tunica media) it was “No significant differences”; in assay [1] (tunica media, listed as enalapril) it was 0.27 ± 0.09%. In the assay with rat aorta intima, the “Reduction (% to CTR) of intima relative volume” value amounted to 26.14%. Also, the “Intima volume/wall (percentage ratio between intima volume and aorta wall volume)” value in the assay with rat aorta intima is listed as 21.96 ± 1.20 ^(e) %.
